Values quoted from earlier work as cited in patent publication US20150313903A1, “METHODS OF TREATING COGNITIVE IMPAIRMENT ASSOCIATED WITH NEURODEGENERATIVE DISORDERS” (Ovid Therapeutics Inc., priority 2014, published 2015).
Where two headings read alike, the source gives them in different places. Values belong to the compound of their own block, whether it stands above or below them.

What was measured:
[1] = in vivo
[2] = in vivo; remark: listed apart in the source
[3] = set-up: key: *: shown to have a beneficial effect in ALS; conditions: in vivo
[4] = several trials, monotherapy
[5] = alcoholics
[6] = in vivo; remark: listed apart in the source
[7] = subjects taking ritanserin
[8] = generalized anxiety disorders, versus control subjects
[9] = target: T1, dopamine transporter (Homo sapiens, UniProt Q01959); conditions: within the prefrontal cortex (PFC)
T1 construct: host or cells: prefrontal cortex

[10] = direct injection into the hippocampus, rats
[11] = MPTP model of parkinsonism in mice
[12] = system: BDNF; conditions: in vivo
[13] = classical conditioning model
[14] = not given; remark: listed apart in the source
[15] = target: serotonin-S2 receptor (Rattus norvegicus, UniProt P14842); conditions: in vivo; dose as low as
[16] = acute dose 10 mg, healthy volunteers
[17] = Parkinson's patients, later studies
[18] = open pilot trial, parkinsonian patients

Sequence of serotonin-S2 receptor (P14842 whole entry): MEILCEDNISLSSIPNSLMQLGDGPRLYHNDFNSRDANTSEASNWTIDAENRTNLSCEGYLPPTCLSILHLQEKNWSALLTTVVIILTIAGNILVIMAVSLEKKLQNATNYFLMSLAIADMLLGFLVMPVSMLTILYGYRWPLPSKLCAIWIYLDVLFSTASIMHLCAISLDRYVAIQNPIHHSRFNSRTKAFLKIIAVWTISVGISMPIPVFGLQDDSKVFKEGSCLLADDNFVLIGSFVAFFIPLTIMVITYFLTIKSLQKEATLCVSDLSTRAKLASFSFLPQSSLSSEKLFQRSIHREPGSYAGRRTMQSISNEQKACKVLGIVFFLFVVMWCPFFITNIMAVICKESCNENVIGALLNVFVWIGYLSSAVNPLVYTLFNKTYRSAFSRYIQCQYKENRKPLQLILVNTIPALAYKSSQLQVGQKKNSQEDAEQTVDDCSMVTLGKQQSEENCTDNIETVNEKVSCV
T1 sequence (Q01959 whole entry): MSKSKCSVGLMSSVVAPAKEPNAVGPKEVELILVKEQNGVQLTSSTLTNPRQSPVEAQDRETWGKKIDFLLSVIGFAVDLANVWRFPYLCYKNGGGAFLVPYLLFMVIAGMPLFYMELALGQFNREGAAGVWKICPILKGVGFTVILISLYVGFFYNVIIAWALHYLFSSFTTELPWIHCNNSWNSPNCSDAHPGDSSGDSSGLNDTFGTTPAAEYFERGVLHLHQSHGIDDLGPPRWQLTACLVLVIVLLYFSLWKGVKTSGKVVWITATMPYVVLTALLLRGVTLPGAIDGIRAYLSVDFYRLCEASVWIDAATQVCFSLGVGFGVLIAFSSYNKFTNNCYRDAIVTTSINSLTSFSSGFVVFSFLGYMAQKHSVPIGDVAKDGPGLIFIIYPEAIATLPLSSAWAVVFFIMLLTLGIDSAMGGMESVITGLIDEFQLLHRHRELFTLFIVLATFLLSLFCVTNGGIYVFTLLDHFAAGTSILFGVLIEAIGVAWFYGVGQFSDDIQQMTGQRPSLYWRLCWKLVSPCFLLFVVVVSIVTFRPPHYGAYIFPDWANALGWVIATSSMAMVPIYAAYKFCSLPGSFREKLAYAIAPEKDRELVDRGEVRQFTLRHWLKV

Structure (SMILES): CC(C)COc1ccc(CNC(=O)N(Cc2ccc(F)cc2)C2CCN(C)CC2)cc1 [Pimavanserin]
efficacy in psychosis associated with Parkinson's disease [1]: effective
reversing PCP-induced deficits [2]: no activity

Structure (SMILES): Nc1nc2ccc(OC(F)(F)F)cc2s1 [Riluzole, 2-amino-6-(trifluoromethoxy) benzothiazole]
beneficial effect in ALS (asterisk mark) [3]: *Riluzole

weight gain [7]: Weight gain is not observed
dose giving 50% serotonin-S2 receptor occupation [15]: 0.08 m/kg
Structure (SMILES): Cc1nc2sccn2c(=O)c1CCN1CCC(=C(c2ccc(F)cc2)c2ccc(F)cc2)CC1 [ritanserin, 6-[2-[4-[bis(4-fluorophenyl)methylene]-1-piperidinyl]ethyl]-7-methyl-5H-thiazolo[3,2-a]pyrimidin-5-one]
efficacy in schizophrenia [4]: did show efficacy
outcome of Phase 3 trial for alcohol abstinence [5]: failed a Phase 3 trial
blocking the physiological effects of LSD [6]: some activity
self-rating of treated subjects [8]: calmer, more relaxed, and more energetic than control subjects
inhibition of the dopamine transporter [9]: selectively inhibit the dopamine transporter
effect on learning [10]: inhibit learning
effect on REM sleep [16]: decreased REM sleep
effect on Stage 2 sleep [16]: decreased Stage 2 sleep
effect on slow-wave sleep [16]: increased slow-wave sleep
increase in SWS during the night, on average (administered just before bedtime): about 52 minutes
psychomotor sedation during the day (after morning administration): no psychomotor sedation
tolerance to the sleep-enhancing effects (after repeated administration): no tolerance
SWS duration (at clinical doses): can double SWS duration
average increase in slow-wave sleep (dose 1 mg): 53 min
average increase in slow-wave sleep (dose 3 mg): 82 min
average increase in slow-wave sleep (dose 10 mg): 101 min
average increase in slow-wave sleep (dose 30 mg): 136.5 min
increase in SWS during the night, on average (morning administration): about 94 minutes
motor deficit [11]: reduced motor deficit
expression of brain (hippocampal) BDNF [12]: increases the expression
effect on learning [13]: impair learning
bradykinesia [14, 17]: reduced bradykinesia
gait [14, 17]: improved gait
L-Dopa-induced dyskinesia [14, 18]: reduced L-Dopa-induced dyskinesia
tremor, rigidity, or akinesia [14, 18]: no significant modifying
